# According to US3998795A, “(Acyl-D-α-amino acid-gly-gly-tyr-ala)^1 -somatostatin” (American Home Products Corporation, priority 1975, dated 1976):
# Tested on: growth hormone
# Experiment: In vivo growth hormone release inhibition in Nembutal-treated rats, plasma growth hormone by radioimmunoassay
# Settings: rats 200-250 g, Nembutal 50 mg/kg i.p.; after 5 min octadecapeptide 1000 micrograms/kg s.c.; blood sampled 15 min after administration; control 236 ± 30; p<0.01
# Protocol: The in vivo activity of the octadecapeptides of this invention was established with (CH3 CO-D-Ala-Gly-Gly-L-Tyr-L-Ala)^1 -Somatostatin as a representative member of the octadecapeptides of this invention by injecting Nembutal intraperitoneally into rats weighing between 200 and 250 grams in an amount of 50 milligrams per kilogram body weight. After five minutes, the octadecapeptide was administered to the rats, subcutaneously, at a dose of 1000 micrograms per kilogram body weight. The rats blood was sampled 15 minutes after administration of the octadecapeptide and the amount of growth hormone present in the plasma was determined by radioimmunoassay. The octadecapeptide afforded a blood plasma concentration of growth hormone in the test animals of 74 ± 16 nanograms per milliliter as opposed to the concentration of growth hormone in the control animals of 236 ± 30 nanograms per milliliter, at a statistical certainty of p<0.01.
structure (smiles),measurement,value
CC(=O)N[C@H](C)C(=O)NCC(=O)NCC(=O)N[C@@H](Cc1ccc(O)cc1)C(=O)N[C@@H](C)C(=O)NCC(=O)N[C@H]1CSSC[C@@H](C(=O)O)NC(=O)[C@H](CO)NC(=O)[C@H]([C@@H](C)O)NC(=O)[C@H](Cc2ccccc2)NC(=O)[C@H]([C@@H](C)O)NC(=O)[C@H](CCCCN)NC(=O)[C@H](Cc2c[nH]c3ccccc23)NC(=O)[C@H](Cc2ccccc2)NC(=O)[C@H](Cc2ccccc2)NC(=O)[C@H](CC(N)=O)NC(=O)[C@H](CCCCN)NC1=O [N-α-Acetyl-D-alanyl-glycyl-glycyl-L-tyrosyl-L-alanyl-glycyl-L-cysteinyl-L-lysyl-L-asparaginyl-L-phenylalanyl-L-phenylalanyl-L-tryptophyl-L-lysyl-L-threonyl-L-phenylalanyl-L-threonyl-L-seryl-L-cysteine (7-18 disulfide) diacetate],blood plasma concentration of growth hormone,74 ± 16 nanograms per milliliter
